Source: patent US20180327367A1, “MACROCYCLIC BROAD SPECTRUM ANTIBIOTICS” (priority 2015, published 2018)
Values after ≈ are worked out from the molar mass of the structure shown. Like-named read-outs stand apart in the source and are kept apart here.

Tests used:
[1] = test system: Methicillin Resistant Staphylococcus aureus strain USA 300, NRS384; test: Minimum inhibitory concentration, broth micro-dilution (CLSI), S. aureus; format: cell-based; details: 35° C., 22 hours; for MIC: Staphylococcus aureus, MRSA / NRS 384 / USA300, 22 h
Outline: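 Ten-point 2-fold series began at 4 μg/mL in protocol 2 and 0.5 μg/mL in protocol 3, in cation-adjusted MHB plus 0.002% Tween-80. Bacteria added to OD600 0.0005 final and incubated at 35° C for 22 hours per CLSI microdilution.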

[2] = test system: Escherichia coli ATCC 25922; test: Minimum inhibitory concentration, broth micro-dilution (CLSI), E. coli; format: cell-based; details: 35° C., 22 hours; for MIC: Escherichia coli, ATCC25922, 22 h
[3] = test system: Escherichia coli MC4100 harboring the IMP4213 (E. coli IMP); test: microbe, parasite or virus in culture; format: cell-based; details: 35° C., 22 hours; for MIC: Escherichia coli, 22 h, read-out: MIC (μg/mL) E. coli IMP, E. coli MC4100 IMP4213, increased outer-membrane permeability; for MIC (μg/mL) E. coli IMP: E. coli MC4100 IMP4213, increased outer-membrane permeability
Outline: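 Colonies grown 20 hours at 35° C were suspended in cation-adjusted Mueller Hinton Broth with 0.002% Tween-80. Cells were then added to 2-fold compound dilutions starting at 4 or 0.5 μg/mL, at OD600 0.0005.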

[4] = target: T1, SpsB (Staphylococcus aureus signal peptidase) (Staphylococcus aureus, UniProt P0A070); test: cell-based; format: biochemical; details: SpsB IC50, whole-cell S. aureus (USA300 background, overexpressing SpsB) as SpsB source; fluorogenic peptide substrate, kinetic read 30 min
T1 construct: This assay uses a suspension of Staphylococcus aureus cells as a source of SpsB instead of recombinant SpsB protein; endogenous in cells; host or cells: S. aureus, USA300 background, overexpressing SpsB (whole-cell suspension from frozen pellets)
T1 sequence (P0A070 whole entry): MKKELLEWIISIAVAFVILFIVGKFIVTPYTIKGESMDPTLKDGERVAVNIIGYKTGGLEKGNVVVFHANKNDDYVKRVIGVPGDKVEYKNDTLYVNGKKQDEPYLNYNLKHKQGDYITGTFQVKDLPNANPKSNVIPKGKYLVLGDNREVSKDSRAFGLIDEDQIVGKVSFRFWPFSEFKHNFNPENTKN
Outline: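 Whole S. aureus cells (USA300, overexpressing SpsB) in PBS with MgCl2, CaCl2 and 0.1% Tween-80 served as enzyme source, mixed with 20 μM stock of (Dabcyl)βAla-KPAKAAE(Edans) substrate before use. Fluorescence (ex 340/em 490 nm) read kinetically over 30 min. IC50 from reaction rate versus 11-point inhibitor concentration.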

[5] = MRSA USA 300 NRS384, read-out: MIC (μg/mL) S. aureus
[6] = E. coli ATCC 25922, read-out: MIC (μg/mL) E. coli
[7] = read-out: MIC (μg/mL) S. aureus, MRSA USA 300 NRS384
[8] = read-out: MIC (μg/mL) E. coli, E. coli ATCC 25922

SMILES | MIC [1, 5] [µg/mL] | MIC [2, 6] [µg/mL] | MIC [3] [µg/mL] | IC50 [4] [nM] | MIC [1, 7] [µg/mL] | MIC [2, 8] [µg/mL] | MIC (μg/mL) S. aureus ([1]; MRSA USA 300 NRS384) [µg/mL] | MIC (μg/mL) E. coli ([2]; E. coli ATCC 25922) [µg/mL] | MIC (μg/mL) E. coli IMP [3] [µg/mL]
Cc1cc(OCC(C)(C)C)ccc1C(=O)N[C@@H](CCN)C(=O)N(C)[C@@H]1C(=O)N[C@@H](C)C(=O)N[C@H](C(=O)NCC#N)Cc2ccc(OCCN)c(c2)-c2cc1ccc2OCCN [Compound 280] | 0.13 (≈ 0.154 µM) | 0.63 (≈ 0.748 µM) | 0.027 (≈ 0.0321 µM) | 2 |  |  |  |  | 
Cc1cc(/C=C/c2ccccc2)ccc1C(=O)N[C@@H](CCN)C(=O)N(C)[C@@H]1C(=O)N[C@@H](C)C(=O)N[C@H](C(=O)NCC#N)Cc2ccc(OCCN)c(c2)-c2cc1ccc2OCCN [Compound 429] | 0.063 (≈ 0.0734 µM) | 0.75 (≈ 0.874 µM) | 0.0078 (≈ 0.00909 µM) | 0.81 |  |  |  |  | 
CCCCc1ccc(C(=O)NCC(=O)N[C@@H](CCN)C(=O)N(C)[C@@H]2C(=O)N[C@@H](C)C(=O)N[C@H](C(=O)NCC#N)Cc3ccc(OCCN)c(c3)-c3cc2ccc3OCCN)c(C)c1 [Compound 370] |  |  | 0.13 (≈ 0.15 µM) | 1.1 | 0.19 (≈ 0.219 µM) | 16 (≈ 18.4 µM) |  |  | 
CCCCCCCCCCNCCC(=O)N(C)[C@@H]1C(=O)N[C@@H](C)C(=O)N[C@H](C(=O)NCC#N)Cc2ccc(OCCN)c(c2)-c2cc1ccc2O [Compound 317] | 0.094 (≈ 0.133 µM) | 64 (≈ 90.7 µM) | 1 (≈ 1.42 µM) | 0.87 |  |  |  |  | 
CCCCCCc1ccc(C(=O)N[C@@H](CCC(N)=O)C(=O)N(C)[C@@H]2C(=O)N[C@@H](C)C(=O)N[C@H](C(=O)NCC#N)Cc3ccc(OCCN)c(c3)-c3cc2ccc3OCCN)c(C)c1 [Compound 246] | 0.13 (≈ 0.15 µM) | 16 (≈ 18.4 µM) | 0.063 (≈ 0.0726 µM) | 1.1 |  |  |  |  | 
CCCCCCCCc1ccc(C(=O)N[C@@H](CN)C(=O)N(C)[C@@H]2C(=O)N[C@@H](C)C(=O)N[C@H](C(=O)NCC#N)Cc3ccc(OCCN)c(c3)-c3cc2ccc3OCCN)cc1 [Compound 344] | 0.094 (≈ 0.112 µM) | 0.38 (≈ 0.452 µM) | 0.036 (≈ 0.0429 µM) | 1 |  |  |  |  | 
Cc1nc(-c2ccc(CC(C)C)cc2)ncc1C(=O)N[C@@H](CCN)C(=O)N(C)[C@@H]1C(=O)N[C@@H](C)C(=O)N[C@H](C(=O)NCC#N)Cc2ccc(OCCN)c(c2)-c2cc1ccc2OCCN [Compound 157] | 0.023 (≈ 0.0258 µM) | 0.098 (≈ 0.11 µM) | 0.0034 (≈ 0.00382 µM) | 0.79 |  |  |  |  | 
CCCCc1ccc(C(=O)N[C@@H](CCN)C(=O)N(C)[C@@H]2C(=O)N[C@@H](C)C(=O)N[C@H](C(=O)NCC#N)Cc3ccc(OCCN)c(c3)-c3cc2ccc3OCCN)c(C)c1 [Compound 208] | 0.25 (≈ 0.308 µM) | 1.3 (≈ 1.6 µM) | 0.029 (≈ 0.0357 µM) | 0.99 |  |  |  |  | 
CCCCCCc1ccc(C(=O)N2C[C@@H](N)CC2C(=O)N(C)[C@@H]2C(=O)N[C@@H](C)C(=O)N[C@H](C(=O)NCC#N)Cc3ccc(OCCN)c(c3)-c3cc2ccc3OCCN)c(C)c1 (some centres unmarked) [Compound 480] | 0.19 (≈ 0.223 µM) | 0.5 (≈ 0.587 µM) | 0.012 (≈ 0.0141 µM) | 0.92 |  |  |  |  | 
CCCCCCCCC(O)C(=O)NC(CO)C(=O)N(C)C1C(=O)NC(C)C(=O)NC(C(=O)NCC#N)Cc2ccc(OCCN)c(c2)-c2cc1ccc2OCCN (single isomer, unassigned) [Compound 393-P2] |  |  |  | 4.7 |  |  | 1 (≈ 1.26 µM) | >64 | 2 (≈ 2.52 µM)
CCCCCCCCCCCC(=O)N[C@@H](CCn1cncn1)C(=O)N(C)[C@@H]1C(=O)N[C@@H](C)C(=O)N[C@H](C(=O)NCC#N)Cc2ccc(OCCN)c(c2)-c2cc1ccc2OCCN [Compound 454] | 0.13 (≈ 0.149 µM) | 32 (≈ 36.7 µM) | 0.13 (≈ 0.149 µM) | 1.8 |  |  |  |  | 
CCCCCCCCCCCC(=O)N[C@@H](CO)C(=O)N(C)[C@@H]1C(=O)N[C@@H](C)C(=O)N[C@H](C(=O)N[C@H](C#N)C2CC2)Cc2ccc(OCCN)c(c2)-c2cc1ccc2OCCN [Compound 420] | 4 (≈ 4.72 µM) | 24 (≈ 28.3 µM) | 1 (≈ 1.18 µM) | 8.4 |  |  |  |  | 
CCCc1ccc(-c2nc(C)c(C(=O)N[C@@H](CCN)C(=O)N(C)[C@@H]3C(=O)N[C@@H](C)C(=O)N[C@H](C(=O)NCC#N)Cc4ccc(OCCN)c(c4)-c4cc3ccc4OCCN)c(C)n2)cc1 [Compound 165] | 0.047 (≈ 0.0528 µM) | 0.19 (≈ 0.213 µM) | 0.0039 (≈ 0.00438 µM) | 0.61 |  |  |  |  | 
CCCCCCCCCCCC(=O)N[C@@H](CCCCN)C(=O)N(C)[C@@H]1C(=O)N[C@@H](C)C(=O)N[C@H](C(=O)NCC#N)Cc2ccc(O)c(c2)-c2cc1ccc2O [Compound 468] | 0.19 (≈ 0.249 µM) | 64 (≈ 84 µM) | 0.5 (≈ 0.656 µM) | 3.4 |  |  |  |  | 
CCCCCCCCCCN[C@@H](CO)C(=O)N(C)[C@@H]1C(=O)N[C@@H](C)C(=O)N[C@H](C(=O)NCC#N)Cc2ccc(OCCN)c(c2)-c2cc1ccc2OCCN [Compound 400] |  |  | 2 (≈ 2.61 µM) | 5 | 0.25 (≈ 0.327 µM) | > 64 |  |  | 
CCCCCCCS(=O)(=O)c1ccc(C(=O)N[C@@H](CCN)C(=O)N(C)[C@@H]2C(=O)N[C@@H](C)C(=O)N[C@H](C(=O)NCC#N)Cc3ccc(OCCN)c(c3)-c3cc2ccc3OCCN)c(C)c1 [Compound 390] | 0.13 (≈ 0.142 µM) | 3 (≈ 3.27 µM) | 0.031 (≈ 0.0338 µM) | 1.1 |  |  |  |  | 
CCCCCCCCCCS(=O)(=O)N[C@@H](CCN)C(=O)N(C)[C@@H]1C(=O)N[C@@H](C)C(=O)N[C@H](C(=O)NCC#N)Cc2ccc(OCCN)c(c2)-c2cc1ccc2OCCN [Compound 346] | 0.031 (≈ 0.0368 µM) | 8 (≈ 9.5 µM) | 0.063 (≈ 0.0748 µM) | 0.7 |  |  |  |  | 
CCCCCCCCCNCCCC(=O)N(C)[C@@H]1C(=O)N[C@@H](C)C(=O)N[C@H](C(=O)NCC#N)Cc2ccc(OCCN)c(c2)-c2cc1ccc2OCCN [Compound 133] | 0.25 (≈ 0.334 µM) | > 64 | > 4 | 1.1 |  |  |  |  | 
CCCCCCCCc1ccc(C(=O)N[C@@H](CCNCC(=O)O)C(=O)N(C)[C@@H]2C(=O)N[C@@H](C)C(=O)N[C@H](C(=O)NCC#N)Cc3ccc(OCCN)c(c3)-c3cc2ccc3OCCN)c(C)c1 [Compound 263] | 0.13 (≈ 0.14 µM) | 2 (≈ 2.16 µM) | 0.023 (≈ 0.0248 µM) | 1.1 |  |  |  |  | 
CCC(C)(C)c1ccc(-c2ncc(C(=O)N[C@@H](CCN)C(=O)N(C)[C@@H]3C(=O)N[C@@H](C)C(=O)N[C@H](C(=O)NCC#N)Cc4ccc(OCCN)c(c4)-c4cc3ccc4OCCN)c(C)n2)cc1 [Compound 183] | 0.063 (≈ 0.0697 µM) | 0.13 (≈ 0.144 µM) | 0.0059 (≈ 0.00653 µM) | 0.62 |  |  |  |  | 
CCCCCCCCc1ccc(C(=O)N[C@@H](CCN)C(=O)N(C)[C@@H]2C(=O)N[C@@H](C)C(=O)N[C@H](C(=O)NCC#N)Cc3ccc(OCCN)c(c3)-c3cc2ccc3OCCN)c(N)c1 [Compound 223] | 0.031 (≈ 0.0357 µM) | 0.25 (≈ 0.288 µM) | 0.016 (≈ 0.0184 µM) | 1.5 |  |  |  |  | 
CCCCCCCCc1ccc(C(=O)N[C@@H](CCCCN)C(=O)N(C)[C@@H]2C(=O)N[C@@H](C)C(=O)N[C@H](C(=O)NCC#N)Cc3ccc(OC)c(c3)-c3cc2ccc3OC)cc1 [Compound 470] | 3 (≈ 3.64 µM) | > 64 | 0.5 (≈ 0.607 µM) | 24 |  |  |  |  | 
CCCCCCCCC(F)C(=O)NC(CO)C(=O)N(C)C1C(=O)NC(C)C(=O)NC(C(=O)NCC#N)Cc2ccc(OCCN)c(c2)-c2cc1ccc2OCCN (single isomer, unassigned) [Compound 394-P2] |  |  |  | 2.7 |  |  | 0.5 (≈ 0.627 µM) | 64 (≈ 80.3 µM) | 0.38 (≈ 0.477 µM)
